Consider 24 compounds from patent US12686690B2, “Macrocyclic urea orexin receptor agonists” (Merck Sharp & Dohme LLC, priority 2020, dated 2026).

What is called EC50 is the concentration at which the effect is half-maximal.

The experiment concerns the target T1, hOX2R (Homo sapiens, UniProt O43614).
T1 construct: expressed in transfected cells; host or cells: CHO cells (G418 selection)
T1 sequence (O43614 1-444): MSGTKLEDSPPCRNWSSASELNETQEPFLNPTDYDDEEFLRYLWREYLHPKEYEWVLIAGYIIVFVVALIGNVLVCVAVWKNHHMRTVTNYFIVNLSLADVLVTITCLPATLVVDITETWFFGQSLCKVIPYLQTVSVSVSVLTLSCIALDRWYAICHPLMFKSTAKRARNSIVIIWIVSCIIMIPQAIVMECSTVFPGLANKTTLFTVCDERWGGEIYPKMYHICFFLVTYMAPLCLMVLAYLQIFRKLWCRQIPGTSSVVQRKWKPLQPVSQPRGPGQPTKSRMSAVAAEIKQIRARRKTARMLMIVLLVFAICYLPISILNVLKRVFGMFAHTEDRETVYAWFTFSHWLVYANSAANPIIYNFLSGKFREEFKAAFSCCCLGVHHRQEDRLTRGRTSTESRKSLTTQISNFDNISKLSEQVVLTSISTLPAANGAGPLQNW
Nature of the experiment: hOX2R IPone assay (orexin receptor agonism). The experiment is classed as cell-based. The following applies: IPone readout; for hOX2R_Ipone max %act: maximal activation; for EC50: orexin receptor agonist, read-out: hOX2R_IPone EC50.

Take `CCN1C(=O)NCCC2CCC(C2)Oc2nc(cn3ccnc23)-c2cccc(c2)C1C` [Example 1B, (10R,E)-9-ethyl-10-methyl-3-oxa-7,9-diaza-2(6,8)-imidazo[1,2-a]pyrazina-1(1,3)-benzena-4(1,3)-cyclopentanacyclodecaphan-8-one]: the hOX2R_Ipone max %act stood at 99.5% and the EC50 came out at 126 nM.

Regarding `CCN1C(=O)NCCCCCOc2nc(cn3ccnc23)-c2cccc(c2)[C@H]1C` [Example 49, (12R)-13-ethyl-12-methyl-12,13,15,16,17,18,19,20-octahydro-14H-6,22-(azeno)-11,7-(metheno)imidazo[2,1-c][1,4,13,15]oxatriaza-cycloicosin-14-one], the hOX2R_Ipone max %act was found to be 74.7% and the EC50 turned out to be 42 nM.

On to `CCN1C(=O)N[C@@H](CCC(F)(F)F)CCCCCOc2nc(nn3c(C)cnc23)-c2cc(ncc2OC)[C@H]1C` [Example 124, (3R,7R,E)-4-ethyl-25-methoxy-17,3-dimethyl-7-(3,3,3-trifluoropropyl)-13-oxa-4,6-diaza-1(2,4)-imidazo[2,1-f][1,2,4]triazina-2(4,2)-pyridinacyclotridecaphan-5-one], for which the hOX2R_Ipone max %act was determined as 97.96% and the EC50 worked out at 3.99 nM.

Consider `CCN1C(=O)NCCOCCCOc2nc(cn3ccnc23)-c2cccc(c2)[C@H]1C` [Example 17, (12R)-13-ethyl-12-methyl-12,13, 16,17,20,21-hexahydro-19H-6,23-(azeno)-11,7-(metheno) imidazo[1,2-o][1, 18,4,6,15]dioxa-triazacyclohenicosin-14(15H)-one], for which the hOX2R_Ipone max %act was found to be 99.6% and the EC50 stood at 19.4 nM.

Turning to `CCN1C(=O)NC(CCC#N)CCCCCOc2nc(cn3ccnc23)-c2cc(ncc2OC)[C@H]1C` (stereo partly drawn) [Example 196, 3-((3R,E)-4-ethyl-25-methoxy-3-methyl-5-oxo-13-oxa-4,6-diaza-1(6,8)-imidazo[1,2-a]pyrazina-2(4,2)-pyridinacyclotridecaphane-7-yl)propanenitrile], the hOX2R_Ipone max %act is listed as 101.6% and the EC50 came to 0.44 nM.

Regarding `CCN1C(=O)N[C@@H](CCC(F)(F)F)CCCCCOc2nc(cn3ccnc23)-c2ccnc(c2)[C@@H]1C` [Example 30, (12S,16R)-13-ethyl-12-methyl-16-(3,3,3-trifluoropropyl)-12,13,16,17,18, 19,20,21-octa-hydro-6,23-(azeno)-11,7-(metheno)imidazo [2,1-c][1,4,10, 13,15]oxatetra-azacyclohenicosin-14(15H)-one], the hOX2R_Ipone max %act amounted to 98.5% and the EC50 turned out to be 51.1 nM.

Consider `CCN1C(=O)NC(CCC(F)(F)F)CC(C)CCOc2nc(cn3ccnc23)-c2cccc(c2)[C@H]1C` (single isomer, unassigned) [Example 48A], for which the hOX2R_Ipone max %act is 99.4% and the concentration for a half-maximal effect (EC50) stood at 4.1 nM.

In the case of `CCN1C(=O)NC(C2CCCO2)CCCCCOc2nc(cn3ccnc23)-c2cc(ncc2OC)[C@H]1C` (stereo partly drawn) [Example 193, (3R,E)-4-ethyl-25-methoxy-3-methyl-7-(tetrahydrofuran-2-yl)-13-oxa-4,6-diaza-1(6,8)-imidazo[1,2-a]pyrazina-2(4,2)-pyridinacyclotri-decaphan-5-one], the hOX2R_Ipone max %act is listed as 100.7% and the half-maximal effective concentration (EC50) is 1.21 nM.

As to `CCN1C(=O)NC(CC2(C(F)F)CC2)CCCCCOc2nc(cn3ccnc23)-c2cc(ncc2OC)[C@H]1C` (single isomer, unassigned) [Example 70A], the hOX2R_Ipone max %act came out at 99.1% and the EC50 turned out to be 16.5 nM.

For `CCN1C(=O)N[C@@H](CCC(F)(F)F)CCCCCOc2nc(cn3ccnc23)C2=CN=C(O2)C1C` (stereo partly drawn) [Example 108, (15R)-12-ethyl-11-methyl-15-(3,3,3-trifluoropropyl)-11,12,15,16,17,18,19, 20-octahydro-6,22-(azeno)-7,10-epoxyimidazo[2,1-c][1,4,9,12,14]oxatet-raazacycloicosin-13(14H)-one], the hOX2R_Ipone max %act is given as 100.6% and the EC50 stood at 14.9 nM.

Consider `CCN1C(=O)N[C@@H](CC(F)(F)F)CCCCCOc2nc(cn3ccnc23)-c2cc(ncc2OC)[C@H]1C` [Example 114, (12R,16R)-13-ethyl-8-methoxy-12-methyl-16-(2,2,2-trifluoroethyl)-12,13,16,17,18,19,20,21-octahydro-6,23-(azeno)-11,7-(metheno)imidazo[2,1-c][1,4,10,13,15]oxatetraazacyclohenicosin-14(15H)-one], for which the hOX2R_Ipone max %act stood at 100.9% and the concentration giving a half-maximal response (EC50) was determined as 0.7 nM.

For `CCN1C(=O)N[C@@H](CCC(F)(F)F)CCCCCOc2cc(cc3ccnn23)-c2nc(cnc2OC)C1C` (single isomer, unassigned) [Example 80B], the hOX2R_Ipone max %act is on record as 99.8% and the concentration giving a half-maximal response (EC50) came out at 2.9 nM.

On to `CCN1C(=O)NC(CCC(F)(F)F)CCOCCOc2nc(cn3ccnc23)-c2cc(ncc2OC)[C@H]1C` (single isomer, unassigned) [Example 6A], for which the hOX2R_Ipone max %act was found to be 103.5% and the EC50 came to 11.9 nM.

In the case of `CCN1C(=O)NC(c2ncnn2C)CCCCCOc2nc(cn3ccnc23)-c2cc(ncc2OC)[C@H]1C` (stereo partly drawn) [Example 219, (3R,E)-4-ethyl-2^5-methoxy-3-methyl-7-(1-methyl-1H-1,2,4-triazol-5-yl)-13-oxa-4,6-diaza-1(6,8)-imidazo[1,2-a]pyrazina-2(4,2)-pyridinacyclotridecaphan-5-one], the hOX2R_Ipone max %act came to 102.6% and the EC50 stood at 37.5 nM.

For the compound `CCN1C(=O)NC(CCC(F)(F)F)CCC(F)(F)CCOc2nc(cn3ccnc23)-c2cc(ncc2OC)[C@H]1C` (single isomer, unassigned) [Example 121B], the hOX2R_Ipone max %act stood at 100.7% and the half-maximal effective concentration (EC50) was 0.5 nM.

Take `CCN1Cc2cc(ccn2)-c2cn3ccnc3c(n2)OCCCCC[C@H](CCC(F)(F)F)NC1=O` [Example 120, (16R)-13-ethyl-16-(3,3,3-trifluoropropyl)-12,13,16,17,18,19,20,21-octahydro-6,23-(azeno)-11,7-(metheno)imidazo[2,1-c][1,4,10,13,15]oxatetraazacyclohenicosin-14(15H)-one]: the hOX2R_Ipone max %act is 98.4% and the EC50 came to 17.7 nM.

Turning to `CCN1C(=O)NC(C(C)(C)C)CCCCCOc2nc(cn3ccnc23)-c2cc(ncc2OC)[C@H]1C` (single isomer, unassigned) [Example 63B], the hOX2R_Ipone max %act is 103.3% and the EC50 is 5.1 nM.

In the case of `CCN1C(=O)N[C@@H](CCC(F)F)CCCCCOc2nc(cn3ncnc23)-c2cc(ncc2Cl)[C@H]1C` [Example 128, (3R,7R,E)-25-chloro-7-(3,3-difluoropropyl)-4-ethyl-3-methyl-13-oxa-4,6-diaza-1(6,8)-[1,2,4]triazolo[1,5-a]pyrazina-2(4,2)-pyridinacyclotridecaphan-5-one], the hOX2R_Ipone max %act was 102.9% and the EC50 was found to be 11.2 nM.

As to `CCN1C(=O)N[C@@H](CCC(F)(F)F)CCCCOc2nc(cn3cc(C)nc23)-c2cc(ncc2OC)C1C(F)(F)F` (single isomer, unassigned) [Example 36B], the hOX2R_Ipone max %act was 101.5% and the 50% effective concentration (EC50) was determined as 8.9 nM.

Regarding `CCN1C(=O)N[C@@H](CCC(F)(F)F)CCCCCOc2cc(nn3ccnc23)-c2cc(cnc2OC)[C@H]1C` [Example 89, (12R,16R)-13-ethyl-8-methoxy-12-methyl-16-(3,3,3-trifluoropropyl)-12,13,16,17,18,19,20, 21-octahydro-6,23:11,7-di(metheno) imidazo[2,1-c][1,4,5,9,13,15]oxapentaaza-cyclohenicosin-14(15H)-one], the hOX2R_Ipone max %act is 99.2% and the EC50 came out at 6.4 nM.

As to `CCN1C(=O)NCCCCCOc2nc(cn3ncnc23)-c2cc(ncc2OC)C1C(F)(F)F` (stereo not drawn) [Example 35, 13-ethyl-8-methoxy-12-(trifluoromethyl)-12,13,15,16,17,18,19,20-octahydro-14H-6,22-(azeno)-11,7-(metheno) [1,2,4]triazolo[5,1-c][1,4,10,13,15]oxatetra-azacycloicosin-14-one], the hOX2R_Ipone max %act is reported as 82.8% and the EC50 stood at 4710 nM.

Take `CCN1C(=O)NCc2nc(cs2)CCOc2nc(cn3ccnc23)-c2cccc(c2)[C@H]1C` [Example 22, (R,27E,6^2Z)-10-ethyl-11-methyl-3-oxa-8,10-diaza-6(4,2)-thiazola-2(6,8)-imidazo[1,2-a]pyrazina-1(1,3)-benzenacycloundecaphan-9-one]: the hOX2R_Ipone max %act worked out at 94.8% and the 50% effective concentration (EC50) was determined as 82.6 nM.

For the compound `CCN1C(=O)NCC(C(F)(F)F)N(C)CCOc2nc(cn3ccnc23)-c2cccc(c2)[C@H]1C` (single isomer, unassigned) [Example 25A], the hOX2R_Ipone max %act is reported as 96.6% and the concentration giving a half-maximal response (EC50) is 250 nM.

Turning to `CCN1C(=O)NC(COCC(F)F)CCCCCOc2nc(cn3ccnc23)-c2cc(ncc2OC)[C@H]1C` (mixture of isomers) [Example 190, (3R,E)-7-((2,2-difluoroethoxy)methyl)-4-ethyl-25-methoxy-3-methyl-13-oxa-4,6-diaza-1(6,8)-imidazo[1,2-a]pyrazina-2(4,2)-pyridinacyclotridecaphan-5-one], the hOX2R_Ipone max %act is 101.7% and the EC50 amounted to 0.61 nM.
